Assay [1] has as its target T1, S1R (Mus musculus, UniProt O55242).
T1 construct: membranes prepared from control and PGRMC1 knockout (clones 38 and 207) NSC34 cells; endogenous in cells; host or cells: NSC34 cells (control and PGRMC1 knockout clones 38 and 207)
Briefly: [^125I]-IAF photolabeling of the S1R in NSC34 cell membranes. It is filed as binding. The settings on record: NSC34 membranes (control and PGRMC1 knockout). The method, then:
(§1) Cell membrane preparation was performed following our established method ([Guo et al., 2012]). Briefly, cell pellets were suspended in PBS and sonicated on ice using the following settings: 5 sets (10 strokes/set) at duty cycle = 50, output control = 5. Cell homogenates were centrifuged at 8000 × g for 10 min, and the resulting supernatant was collected and subjected to ultracentrifugation at 100,000 × g for 1 h. The supernatant was discarded and the pellet was gently washed twice with ice-cold PBS. The pellet was then resuspended in PBS and sonicated (3 sets, 10 strokes/set at duty cycle = 50, output control = 5) to homogeneity. Protein concentration was then measured using the standard Bradford reagent (Sigma-Aldrich, St. Louis, MO).
(§2) The synthesis of [^125I]-IAF and photolabeling was performed according to our published method ([Pal et al., 2007]). […] [^125I]-IAF was then added (final 1 nM) and incubated for another 40 min with gentle shaking in the dark. Photoactivation of [^125I]-IAF was performed by exposing the samples to a high-pressure AH-6 mercury lamp for 5 s and Laemmli buffer was immediately added to each sample. The samples were then resolved on a 16 × 18 cm SDS gel with 6–18% acrylamide gradient. The gel was dried and exposed to a phosphor screen for 24–48 h and autoradiograms were recorded using a Phosphoimager (Molecular Dynamics).

For assay [2], the target named is T1, S1R. The settings on record: cited from earlier work; for affinity for the S1R: ref Hellewell et al., 1994.
For assay [3], the system named is PGRMC1. More on the design: method as in Xu et al., 2011. Particulars: ref Xu et al., 2011, cited from earlier work.
The target of assay [4] is T2, S2R (Rattus norvegicus, UniProt Q5U3Y7).
T2 construct: [^125I]-IAF photolabeling of the S2R in PC12 membranes; endogenous in cells; host or cells: PC12 cells
T2 sequence (Q5U3Y7 1-176): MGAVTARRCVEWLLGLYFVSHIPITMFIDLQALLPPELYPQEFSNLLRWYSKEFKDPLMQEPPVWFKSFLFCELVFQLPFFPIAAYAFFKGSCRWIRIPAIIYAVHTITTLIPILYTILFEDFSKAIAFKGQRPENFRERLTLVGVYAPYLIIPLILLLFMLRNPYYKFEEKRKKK
Briefly: [^125I]-IAF photolabeling of the S2R in PC12 membranes. It is filed as binding. The method, then:
as §1, §2

Assay [5] has as its target T3, S2R (Mus musculus, UniProt Q8VD00).
T3 construct: Membranes (28 μg total proteins per reaction) prepared from NSC34 cells of controls, PGRMC1 knockout, or PGRMC1-3 × HA overexpression; endogenous in cells; host or cells: NSC34 cells (control, PGRMC1 knockout clones 38 and 207, PGRMC1-3xHA overexpressing)
T3 sequence (Q8VD00 1-176): T2 sequence (Q5U3Y7 1-176) with V4L, T5A, M26L, L33V, F71L, V105A, I118L, I127V, N136S, F169Y
Also on record: method as in Matsumoto et al., 2014. Particulars: competitive [^3H]-DTG binding assays; ref Matsumoto et al., 2014; cited from earlier work.

The target of assay [6] is T1, S1R. Also on record: method as in Matsumoto et al., 2014. The settings on record: competitive [^3H]-DTG binding assays; ref Matsumoto et al., 2014; cited from earlier work.
For assay [7], the target named is T3, S2R. The settings on record: cited from earlier work.
In assay [8] the target is T4, S1R (Rattus norvegicus, UniProt Q9R0C9).
T4 construct: endogenous in cells; host or cells: PC12 cells
T4 sequence (Q9R0C9 whole entry): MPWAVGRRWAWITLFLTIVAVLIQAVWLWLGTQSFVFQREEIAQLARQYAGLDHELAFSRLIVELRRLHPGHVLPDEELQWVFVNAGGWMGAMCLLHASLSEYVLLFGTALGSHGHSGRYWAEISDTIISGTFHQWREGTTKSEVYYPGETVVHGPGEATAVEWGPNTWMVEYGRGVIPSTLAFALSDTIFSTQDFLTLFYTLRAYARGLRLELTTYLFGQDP
Briefly: [^125I]-IAF photolabeling of the S1R in PC12 membranes. It is filed as binding. Particulars: 20 μM. On the procedure:
as §1, §2

The target in assay [9] is T3, S2R. In words: [^125I]-IAF photolabeling of the S2R in NSC34 cell membranes. Type of assay: binding. Particulars: NSC34 membranes (control and PGRMC1 knockout); 20 μM. On the procedure: as §1, §2
Assay [10] addresses T3, S2R. Also on record: method as in Pal et al., 2007. Particulars: earlier work of the group; ref Pal et al., 2007; cited from earlier work.
The target in assay [11] is PGRMC1 (Rattus norvegicus, UniProt P70580). In words: biochemical.
Chain of PGRMC1 (Rattus norvegicus, UniProt P70580) (P70580 whole entry): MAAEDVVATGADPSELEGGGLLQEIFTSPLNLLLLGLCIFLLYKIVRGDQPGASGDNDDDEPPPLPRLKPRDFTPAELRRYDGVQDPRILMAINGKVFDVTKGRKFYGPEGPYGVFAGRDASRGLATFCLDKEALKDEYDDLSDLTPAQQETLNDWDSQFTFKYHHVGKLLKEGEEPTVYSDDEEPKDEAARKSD
Procedure: Liver tissues were homogenized (10 ml buffer/g wet tissue) by 4 bursts of 10 s each using a Brinkman polytron (American Laboratory Trading Inc., East Lyme, CT) on setting 6 in ice-cold sodium phosphate buffer (10 mM pH 7.4) containing 0.32 M sucrose and a cocktail of protease inhibitors (20 μg/ml leupeptin, 5 μg/ml soybean trypsin inhibitor, 100 μM phenylmethylsulfonyl fluoride (PMSF), 100 μM benzamidine and 1 mM EDTA). The membrane suspension after homogenization was centrifuged for 10 min at 17,000 × g and the supernatant was subjected to ultracentrifugation at 100,000 × g for 1 h to collect membrane fractions. The pellet from the second centrifugation was resuspended to a protein concentration of 10 mg/ml in the foregoing buffer, snapped frozen and stored at − 80 °C.
Inhibition of [^3H]-progesterone binding to PGRMC1 was performed according to [Peluso et al. (2008)]. […] After incubation at 37 °C for 60 min, the reaction was terminated by rapid filtration through glass fiber filters, using a Brandel cell harvester and processed as described above. […] Nonspecific binding was monitored in the presence of nonradioactive progesterone at 10 μM and subtracted from total [^3H]-progesterone binding.
Assay [12] has as its target T3, S2R. Briefly: Saturation binding of [^3H]-DTG in NSC34 cell membranes, S1R masked with (+)-pentazocine. The settings on record: mean ± SEM. The method, then:
as §1

In assay [13] the target is PGRMC1. Particulars: ref Peluso et al., 2008; cited from earlier work.
Assay [14] addresses T5, S2R (sigma-2 receptor) (Rattus norvegicus, UniProt Q5U3Y7).
T5 construct: Experiments were performed with rat liver membranes; tissue Pel Freez Biologicals; host or cells: rat liver
T5 sequence (Q5U3Y7 1-176): T2 sequence (Q5U3Y7 1-176)
Briefly: Inhibition of [^3H]-DTG binding to the S2R in rat liver membranes.
Procedure: Rat liver membranes, a rich source of sigma-2 receptor, were prepared as described in our previous reports ([Pal et al., 2007], [Guo et al., 2012]) from frozen tissues (Pel Freez Biologicals, Rogers, AR). Liver tissues were homogenized (10 ml buffer/g wet tissue) by 4 bursts of 10 s each using a Brinkman polytron (American Laboratory Trading Inc., East Lyme, CT) on setting 6 in ice-cold sodium phosphate buffer (10 mM pH 7.4) containing 0.32 M sucrose and a cocktail of protease inhibitors (20 μg/ml leupeptin, 5 μg/ml soybean trypsin inhibitor, 100 μM phenylmethylsulfonyl fluoride (PMSF), 100 μM benzamidine and 1 mM EDTA). The membrane suspension after homogenization was centrifuged for 10 min at 17,000 × g and the supernatant was subjected to ultracentrifugation at 100,000 × g for 1 h to collect membrane fractions. The pellet from the second centrifugation was resuspended to a protein concentration of 10 mg/ml in the foregoing buffer, snapped frozen and stored at − 80 °C.

Substitutions are numbered along the chain they refer to. “Also recorded” adds a separate entry of the source.

T1 sequence (O55242 whole entry): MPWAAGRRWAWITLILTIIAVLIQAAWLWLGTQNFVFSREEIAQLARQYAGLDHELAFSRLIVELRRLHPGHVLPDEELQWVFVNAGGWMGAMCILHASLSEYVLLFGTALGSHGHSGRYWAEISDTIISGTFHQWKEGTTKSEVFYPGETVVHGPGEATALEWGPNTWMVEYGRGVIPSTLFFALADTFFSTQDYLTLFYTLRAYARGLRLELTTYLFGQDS

As for `CC(C)=CCN1CC[C@]2(C)c3cc(O)ccc3C[C@H]1[C@H]2C` [(+)-pentazocine], in [1] (5 μM), the “protection of [^125I]-IAF photolabeling of the S1R (26 kDa band)” value is “protected against [^125I]-IAF photolabeling of the S1R; also recorded: readily protected”. The “affinity for the S1R” value in assay [2] was below 10 nM. Further, the “ligand for PGRMC1” value in [3] is reported as “not a ligand for PGRMC1”.
In general, Ki refers to a dissociation constant, usually derived from enzyme kinetics or from competition with a known ligand. As for `COc1cc2c(cc1OC)CN(CCCCn1c(=O)n(C)c3ccccc31)CC2` [CM398], the “protection of [^125I]-IAF photolabeling of the S2R” value in assay [4] (1 and 10 μM) is recorded as “selectively blocked the labeling of the S2R”. In addition, the inhibition constant (Ki) in assay [5] is 0.43 nM; in [6], 560 nM.
Regarding `O=c1oc2cc(N=C=S)ccc2n1CCCCN1CCN(c2ccc(F)cc2)CC1` [CM572], in assay [7] (ref Nicholson et al., 2015), the “type of S2R ligand” value is reported as “irreversible selective affinity label for the S2R”.
What is called Kd is the equilibrium constant for the complex coming apart. As to `Cc1ccccc1NC(=N)Nc1ccccc1C` [DTG, 1,3-di-o-tolylguanidine], in [4] (20 μM), the “protection of [^125I]-IAF photolabeling of the S2R” value is given as “protected”. Moreover, the “protection of [^125I]-IAF photolabeling of the S1R” value in assay [8] is “protected”. The “protection of [^125I]-IAF photolabeling of the S2R (~18 kDa band)” value in [9] is “protected against photolabeling of both the S1R and the S2R”. The “protection of [^125I]-IAF photolabeling of the S1R (26 kDa band)” value in assay [1] (20 μM) is “protected against photolabeling of both the S1R and the S2R”. Further, the “affinity for the S2R” value in assay [7] (ref Hellewell et al., 1994) is ~ 50 nM. In addition, in [2] (read-out: KD for DTG at the S1R, depending on sources of membranes and assay methods, ref Weber et al., 1986, Quirion et al., 1992, Itzhak and Kassim, 1990, Itzhak, 1987), the Kd was 20 to 80 nM. In [2], the “affinity for the S1R” value is given as ~ 50 nM. Also, the “protection of photolabeling of PGRMC1 (with WC-21)” value in [3] (1 μM) is “protected the photolabeling of PGRMC1”. The “protection of the [^125I]-IAF photolabeled S2R band” value in assay [10] was “protected”. In addition, the inhibition constant Ki in assay [11] was determined as 472000 nM.
`Cc1ccccc1NC(=N)Nc1ccccc1C` [[^3H]-DTG, [^3H]-1,3-Di-tolylguanidine]: the Bmax in [12] (Control NSC34 cells (expression vector without PGRMC1 gene)) is 2.35 ± 0.5 pmol/mg; in assay [12] (PGRMC1-HA overexpressing NSC34 cells) it was 2.5 ± 0.08 pmol/mg.
On to `CC(=O)[C@H]1CC[C@H]2[C@@H]3CCC4=CC(=O)CC[C@]4(C)[C@H]3CC[C@]12C` [[^3H]-progesterone], for which, in assay [13], the dissociation constant (Kd) is 35 nM.
`CC(=O)[C@H]1CC[C@H]2[C@@H]3CCC4=CC(=O)CC[C@]4(C)[C@H]3CC[C@]12C` [progesterone] had a Ki in assay [14] of 14200 ± 4900 nM. Moreover, the dissociation constant Kd in assay [13] was 35 nM.

(Values after PMC4740303, “The Sigma-2 Receptor and Progesterone Receptor Membrane Component 1 are Different Binding Sites Derived From Independent Genes” (EBioMedicine, 2015).)
